{"source": "patent US20110173709A1", "about": "“ECTOPIC, ORTHOTOPIC MODEL FOR REVASCULARIZATION AND TUMOR ASSESSMENT” (Sidney Kimmel Cancer Center, priority 2007, published 2011)", "system": "N202-H2BGFP tumor spheroids", "test": "Doxorubicin treatment of N202-H2BGFP tumor spheroids in dorsal skinfold window chamber", "format": "in vivo, mouse", "conditions": "single dose 1 or 5 mg/kg via the tail vein after re-vascularization, nu/nu nude mice"}
{"smiles": "COc1cccc2c1C(=O)c1c(O)c3c(c(O)c1C2=O)C[C@@](O)(C(=O)CO)C[C@@H]3O[C@H]1C[C@H](N)[C@H](O)[C@H](C)O1", "note": "[Doxorubicin]", "values": [{"measurement": "effect on the growing tumor implanted on the engrafted mammary fat pad", "setting": "orthotopic engrafted mammary fat pad, over a 2 week period, FIG. 6B", "value": "little to no effect"}, {"measurement": "effect on the growing tumor implanted on the skinfold", "setting": "tumor implanted on skinfold, FIG. 6A", "value": "essentially tumor stasis"}]}
